Test results: paper PMC7554977, “Antimicrobial Peptides with Enhanced Salt Resistance and Antiendotoxin Properties” (International Journal of Molecular Sciences, 2020)
Like-named read-outs stand apart in the source and are kept apart here.

Tests used:
[1] = tested on: Gram-negative and Gram-positive bacteria; details: cited from earlier work
From the text: Problems such as salt sensitivity, cost of synthesis, bioavailability, and stability have limited the therapeutic applications of antimicrobial peptides. Among these problems, salt sensitivity is directly related to the microbicidal mechanism of antimicrobial peptides. […] Similar problems have also been found with other antimicrobial peptides. || Recently, solution structures of S1 (Ac-KKWRKWLAKK-NH2) and S1-Nal-Nal (Ac-KKWRKWLAKKNal-Nal-NH2) in complex with LPS micelles have been reported. Both S1 and S1-Nal-Nal bound to LPS through the hydrophilic surface of their helices to the negatively charged region of LPS. S1-Nal-Nal further inserted deeper into the hydrophobic core of LPS micelles and created better hydrophobic interactions of its C-terminal β-naphthylalanine end-tags with the lipid A motif of LPS. The LPS-induced inflammation might then be prohibited. Moreover, a strategy was developed to increase salt resistance and L ... || To investigate the amphipathic helix–AGP–hydrophobic helix on the antimicrobial and neutralization activities of LPS, two peptides KR12 and RW6 were used for the N-terminal and C-terminal helices. […] Sequences of the designed peptides are listed in Table 1 and their helical wheel analyses ar ...

[2] = tested on: Acinetobacter sp. (BCRC number 14B0100); format: cell-based; details: MH and LYM media
From the text: (§1) Escherichia coli strain (ATCC 25922), Staphylococcus aureus sp. strain (ATCC 25923), Pseudomonas aeruginosa Migula strain (ATCC 27853) and Acinetobacter sp. (BCRC number 14B0100) were used to test the antibacterial activity of the peptides. All bacteria were purchased from Food Industry Research and Development Institute (Hsinchu, Taiwan), and Acinetobacter sp. is multiresistant to Ampicillin, Cefazolin, Cefoxitin, Ceftazidime, Ceftriaxone, Ciprofloxacin, Penicillin, Tetracycline and Imipenem. Bacteria were cultured in sterilized MH (Müller−Hinton) broth at 200 rpm and 37 °C for 8 h. After 8 h of culture, the concentrations of the inoculums were determined by measuring absorbance of optical density at 600 nm (OD 600 = 1, equal to approximately 10^8 CFU/mL) with Ultrospec 2100 pro UV−Visible spectrophotometer (Biochrom Ltd., Cambridge, UK)).
(§2) The antibacterial activities were determined by the standard broth microdilution method of the National Committee for Clinical Laboratory Standards with the MH and LYM broth. The LYM broth contains 5.4 mM KCl, 5.6 mM Na2HPO4, 0.5 mM MgSO4, and 1.0 mM sodium citrate. In addition, 0.4 mg of ZnCl2, 2.0 mg of FeCl3·6H2O, 0.1 mg of CuSO4·5H2O, 0.1 mg of MnSO4·H2O, 0.1 mg of Na2B4O7·10H2O, 700 mg of amino acid mixtures without tryptophan (Clontech), and 20 mg of L-tryptophan were added per liter of medium. A vitamin mixture (100X, Sigma) and glucose at final concentration of 2% were also added. We made 1 µL peptide solutions (ranging from 3200 µg/mL to 100 µg/mL in serial dilution) and mixed with 99 µL inoculum (5 × 10^5 CFU/mL) in a polypropylene 96-well plate. We measured the turbidity at OD 600 nm by ELISA plate reader (Thermo Max, Molecular Devices, Sunnyvale, CA, USA). The absorbance of culture medium and inoculum suspension without peptides were used as the negative and positive control, respectively. The MIC value is the lowest concentration of peptide at which there is no obvious growth (equal or more than 90%). […] All peptides were tested in triplicate.

[3] = tested on: LPS (interaction between LPS and factor C); assay: Limulus amebocyte lysate (LAL) assay, LPS binding and neutralization; format: biochemical, Limulus Polyphemus; details: peptide 64 μg/mL; CSE 5 EU; absorbance 405 nm, 37 °C; triplicate
Experimental: The ability of binding and neutralizing LPS in vitro was measured by the LAL assay which is well-known as the most sensitive and specific method.
The abilities of designed peptides to bind and neutralize LPS were assessed using Limulus amebocyte lysate (LAL) assay (Cape Cod Inc., East Falmouth, MA, USA). LAL is an extract of amebocytes from the Atlantic horseshoe crab Limulus Polyphemus. LAL reacts with lipopolysaccharide (LPS) from bacteria. Different concentrations (5, 4, 2, 1, 0.5 EU) of control standard LPS (CSE) were mixed with LAL reagent water at the same volume of 25 μL to make a standard curve. The samples of 25 μL of different peptide concentrations (128, 64, 32, 16, 8 μg/mL) were mixed with 25 μL CSE (5 EU) in a 96-well plate. A portion of 50 μL of pyrochrome reagent was added to the wells immediately. The absorbance at 405 nm was measured by microplate reader at 37 °C every minute until 25 min.

[4] = tested on: Gram-positive and Gram-negative bacteria; format: cell-based
From the text: as §1, §2

## AKRHHGYKRKFH-NH2 [Peptide P-113]
[1]; high salt conditions
  Efficacy in high salt conditions: greatly reduced

## Ac-KRIVQRIKDFLR-NH2 [KR12, reference compound]
[2]
  Effectiveness against Acinetobacter sp. compared with the other three bacteria strains: more effective
[3]
  LPS neutralization, inhibition in LAL assay: less than 25%
[1]
  Antimicrobial activities: possess antimicrobial activities

## Ac-KRIVQRIKDFLRAGPRRLVRI-NH2 [KR12AGPVR6]
[4]; 8 h
  MIC: 4~32 μg/mL

## Ac-KRIVQRIKDFLRAGPRRWWRW-NH2 [KR12AGPWR6]
[4]; 8 h
  MIC: 2~4 μg/mL

## Ac-RRWWRW-NH2 [RW6]
[4]; 8 h
  MIC: 8~32 μg/mL
[4]; LYM broth with >100 mM NaCl added, triplicate
  MIC (antibacterial activity): lost its antibacterial activity
[4]; MH broth, inoculum 5 × 10^5 CFU/mL, OD 600 nm, triplicate
  MIC: lost its antibacterial activity
[3]
  LPS neutralization, inhibition in LAL assay: less than 25%

## WRWWRR [WR6]
[1]
  Antimicrobial activities: moderate antimicrobial activities
